Entries after “also recorded” stand apart in the source; their conditions may differ.
How the values were obtained:
[1] = tested on: human retinoblastoma cells; test: killing of human retinoblastoma cells in cell culture; format: cell-based; conditions: for killing of human retinoblastoma cells by a brief pulse of HDAC inhibitor: brief pulse exposure, multiple concentrations
Method: (§1) The present inventors have additionally determined the pharmacokinetics of belinostat when injected directly into the vitreous of the rabbit eye and have calculated its intraocular half-life in vivo. […] Specifically, once the PK curve of intravitreally-injected belinostat was determined and the half-life calculated, human retinoblastoma cells were incubated in cell culture in media containing varying concentrations of belinostat for a length of time equivalent to 5 intraocular half-lives, the media was then replaced with belinostat-free media and incubated for 7 days, and the number of surviving cells was then determined. Then, as an example, the present inventors back-calculated the initial intravitreal injection dose that would ensure that a concentration equal to or above the in vitro IC90 would be achieved even out to 5 half-lives, in vivo.

[2] = tested on: rabbit eye (retinal function); test: retinal function by electroretinography after intravitreal injections; format: in vivo
Method: (§2) For the first small animal IAC model developed by the inventors and referenced above, the rabbit's dominant ophthalmic artery was endovascularly cannulated, and each drug was injected at various doses. For intravitreal experiments, 1-3 weekly injections of each drug were performed. For the assessment of ocular toxicity described above, the testing platform the inventors developed included a broad array of tests including assessment of retinal structure and function by electroretinography, photography, fluorescein angiography, OCT, and OCT-Angiography, both before and after treatment. Human WERI-Rb1 retinoblastoma xenografts were treated with either intravenous, intra-arterial, or intravitreal chemotherapy. Assessment of efficacy against vitreous seeds was by both direct quantification of seed burden (vitreous harvesting and cell counting) and by assessment of apoptosis induction by immunohistochemistry.
We next wanted to use the toxicity assessment platform that we have developed previously (described above) to compare the toxicity of belinostat (in accordance with the present invention) to current standard-of-care melphalan. As with the efficacy experiments, rabbits received either 3 injections (weekly) of belinostat 350 μg (the effective dose in our rabbit model), or else belinostat 700 μg (double the clinically-effective dose in our rabbit model), or else melphalan 25 μg (the current, clinically-used dose).

[3] = tested on: rabbit eye (retina); test: retinal histopathology after intravitreal injections; format: in vivo; conditions: 3 weekly intravitreal injections; belinostat 350 μg or 700 μg; melphalan 25 μg
Method: as §2
The retina looks just as healthy as the saline-treated control eye.

[4] = tested on: human WERI-Rb1 retinoblastoma xenografts (vitreous seeds); test: rabbit model of retinoblastoma vitreous seeds, intravitreal treatment, quantification of seed burden; format: in vivo; conditions: for reduction in tumor cells / tumor burden compared to saline: 3 weekly intravitreal injections (belinostat 350 μg; melphalan 25 μg), eyes harvested two weeks after final injection
Method: as §2
To determine efficacy and toxicity of intravitreal HDAC inhibitors for retinoblastoma treatment, vitreous seeds were generated in cyclosporine-immunosuppressed rabbits. 1,000,000 human WERI-Rb1 human retinoblastoma cells were injected into each eye. The seeds were allowed to grow for two weeks to form the types of “spherules” seen clinically with vitreous seeds. 350 μg belinostat injections were used (equivalent to approximately 700 μg in a human-sized eye). The right eye was injected with belinostat three times, weekly. The left eye was injected with saline three times, weekly. The eyes were harvested for analysis two weeks after the final injection, and subjected to the cell quantification and apoptosis induction assays described in the above paragraph.
To compare the efficacy of an embodiment of the present invention with melphalan treatment, rabbit eyes were treated with 3 weekly injections of 350 μg belinostat by local (intravitreal) injection as described above. The melphalan comparator group received 3 weekly injections of 25 μg melphalan (the clinically-used dose) by intravitreal injection. Eyes were harvested two weeks after the final injection. […]

[5] = intraocular pharmacokinetics after local administration; format: in vivo, rabbit; conditions: local administration routes (intravitreal, intra-arterial)
Method: as §1

[6] = intra-arterial melphalan, patients; cited from earlier work

Structure (SMILES): Nc1ccccc1NC(=O)c1ccc(CNC(=O)OCc2cccnc2)cc1 [etinostat]
- killing of human retinoblastoma cells by a brief pulse of HDAC inhibitor [1]: can be killed by exposure to a brief pulse

Structure (SMILES): O=C(/C=C/c1cccc(S(=O)(=O)Nc2ccccc2)c1)NO [belinostat, N hydroxy-3-(3-phenylsulfamoyl-phenyl)-acrylamide]
- ERG parameters (retinal function) ([2]; intravitreal belinostat 700 μg (double the clinically-effective dose), 3 weekly injections): only mild worsening of ERG parameters
- retinal functional loss and toxicity (A wave and B wave amplitude, FIG. 3) ([2]; rabbit, in vivo): (absence of) retinal functional loss
- retinal toxicity or structural damage ([2]; rabbit, in vivo): no such retinal toxicity or structural damage
- killing of human retinoblastoma cells by a brief pulse of HDAC inhibitor [1]: can be killed by exposure to a brief pulse
- killing of human retinoblastoma cells in vitro ([1]; in vitro): effective for killing human retinoblastoma cells in vitro
- retinal architecture on histopathology [3]: retained normal retinal architecture and healthy-appearing retina; also recorded: no evidence of retinal degeneration
- response of vitreous tumor seeds (photographs, FIG. 1) ([4]; 350 μg belinostat intravitreal, three times weekly, vs saline-treated left eye): eradication of retinoblastoma vitreous seeds
- reduction in tumor cells / tumor burden compared to saline [4]: 95%
- intraocular concentrations [5]: very high intraocular concentrations, but of very brief duration

Structure (SMILES): Cc1[nH]c2ccccc2c1CCNCc1ccc(/C=C/C(=O)NO)cc1 [panobinostat]
- killing of human retinoblastoma cells by a brief pulse of HDAC inhibitor [1]: can be killed by exposure to a brief pulse

Structure (SMILES): N[C@@H](Cc1ccc(N(CCCl)CCCl)cc1)C(=O)O [melphalan]
- retinal toxicity or structural damage ([2]; intravitreal injection, dose not given): retinal structural damage
- reduction in measured retinal function (electroretinography amplitudes) ([2]; intravitreal melphalan 25 μg, 3 weekly injections, across all parameters measured): 66-90%
- retinal architecture on histopathology [3]: severe atrophy of the retina; also recorded: evidence of retinal degeneration
- reduction in tumor cells / tumor burden compared to saline [4]: 93%
- rates of complications [6]: ~40%
